In patent US11795147B2, “Modulators of complex I” (Boehringer Ingelheim International GmbH, priority 2019, dated 2023):
Where two headings read alike, the source gives them in different places.

Assays:
HT-22 cells = format: cell-based, mice; details: Mus musculus, read-out: HT22 IC50
Complex I = experiment: Assay A: Determination of Complex I mediated ROS-inhibition (CI); format: biochemical; details: read-out: CI IC50; ROS generation by Complex I purified from bovine heart, Amplex Red/horse radish peroxidase readout, 8 point concentration-response

Structure (SMILES) | IC50 (Complex I) [nM] | other results
Nc1ccc2c(c1)/C(=C1/NCCN(C(=O)OCc3ccccc3)C1O)C(=O)N2C1CCNCC1 (stereo not shown) [Compound 87] |  | IC50 (HT-22 cells; HT-22, 16 h): 1000 nM
CCOC(=O)N1CCC(N2C(=O)/C(=C3/COCCN3)c3cc(N4C(C)CCC4C)ccc32)CC1 (stereo not shown) [Compound 11] |  | IC50 (HT-22 cells; HT-22, 16 h): 38 nM
CC(C)N1C(=O)/C(=C2/COCCN2)c2cc(NC3CCC(F)(F)CC3)ccc21 [Compound 72] | 140 | 
CC(Nc1ccc2c(c1)/C(=C1\COCCN1)C(=O)N2C(C)C)c1cncnc1 (stereo not shown) [Compound 126] | 85 | 
CC(C)Nc1ccc2c(c1)/C(=C1\COCCN1)C(=O)N2C1CCN(C(C)C)CC1 [Compound 92] |  | IC50 (HT-22 cells; HT-22, 16 h): 44 nM
CC(Nc1ccc2c(c1)/C(=C1\COCCN1)C(=O)N2C(C)C)C1CC1 (stereo not shown) [Compound 97] | 344 | 
CC1CCC(C)N1c1ccc2c(c1)/C(=C1\COCCCN1)C(=O)N2C1CCOCC1 (stereo not shown) [Compound 142] | 116 | 
CC(C)Nc1ccc2c(c1)/C(=C1\COCCN1)C(=O)N2[C@H]1CCN(C(C)C)C1 [Compound 31] | 81 | 
O=C1/C(=C2/COCCN2)c2cc(NC3CCC(F)(F)CC3)ccc2N1C1CCOCC1 [Compound 78] | 89 | 
CN1CCC(N2C(=O)/C(=C3/CCCN3)c3cc(N(C)C)ccc32)CC1 [Compound 109] |  | IC50 (HT-22 cells; HT-22, 16 h): 160 nM
CC(C)N1C(=O)C(=C2CCOCC2)c2cc(N)ccc21 [Compound 157] | 691 | 
CC(C)C(C)Nc1ccc2c(c1)/C(=C1\COCCN1)C(=O)N2C1COCCOC1 (stereo not shown) [Compound 27] | 162 | 
CC(C)N1C(=O)/C(=C2/COCCN2)c2cc(NCC3(C)COC3)ccc21 [Compound 127] | 82 | 
CN1C(=O)/C(=C2/COCCN2)c2cc(NC3CCC3)ccc21 [Compound 154] | 193 | 
CC(C)N1C(=O)/C(=C2/COCCN2)c2cc(NCC3CCOCC3)ccc21 [Compound 75] | 72 | 
CN(C)c1ccc2c(c1)/C(=C1\CCN(C(=O)OCc3ccccc3)CCN1)C(=O)N2C [Compound 108] | 118 | 
O=C1/C(=C2/COCCN2)c2cc(NC3CCCC3)ccc2N1C1COCCOC1 [Compound 50] | 195 | 
CC(C)N1C(=O)/C(=C2/COCCN2)c2cc(N3CCCC3)ccc21 [Compound 130] | 877 | 
CC(C)Nc1ccc2c(c1)/C(=C1\COC3(CCN(C(C)C)CC3)CN1)C(=O)N2C(C)C [Compound 138] | 206 | 
CC(=O)N1CCC2(CC1)CN/C(=C1\C(=O)N(C(C)C)c3ccc(NC(C)C)cc31)CO2 [Compound 34] | 48 | 
CC(C)N1CCC2(CC1)CN/C(=C1\C(=O)N(C(C)C)c3ccc(N4C(C)CCC4C)cc31)CO2 (stereo not shown) [Compound 139] | 308 | 
CC(C)Nc1ccc2c(c1)/C(=C1\COCCN1)C(=O)N2C(C)(C)C [Compound 90] | 428 | 
O=C1/C(=C2/CCOCCN2)c2cc(NC3CCC3)ccc2N1C1CCOCC1 [Compound 120] | 235 | 
CC(Nc1ccc2c(c1)/C(=C1\COCCN1)C(=O)N2C1CCOCC1)C1CCCC1 (stereo not shown) [Compound 61] | 343 | 
CC(C)N1C(=O)/C(=C2/COCCN2)c2cc(NCC(C)(C)C)ccc21 [Compound 145] | 183 | 
CC(Nc1ccc2c(c1)/C(=C1\COCCN1)C(=O)N2C(C)C)C1CCCC1 (stereo not shown) [Compound 56] | 159 | 

Structure (SMILES) | IC50 (Complex I) [nM] | other results
CC(C)N1C(=O)/C(=C2/CCOCCN2)c2cc(NC3CCC3)ccc21 [Compound 22] | 87 | 
Nc1ccc2c(c1)/C(=C1\COCCN1)C(=O)N2C1CCOCC1 [Compound 35] | 83 | 
O=C1/C(=C2/COCCN2)c2cc(NCC3CCOCC3)ccc2N1C1CCOCC1 [Compound 81] | 130 | 
CCC(CC)Nc1ccc2c(c1)/C(=C1\COCCN1)C(=O)N2C1CCOCC1 [Compound 76] | 43 | 
CC(Nc1ccc2c(c1)/C(=C1\COCCN1)C(=O)N2C1CCOCC1)c1cccnc1 (stereo not shown) [Compound 100] | 34 | 
CN(C)c1ccc2c(c1)/C(=C1\CCCN1)C(=O)N2C [Compound 1] | 60 | 
CC(C)Nc1ccc2c(c1)/C(=C1\COCCN1)C(=O)N2[C@H]1CCN(C2COC2)C1 [Compound 69] | 55 | 
CC(Nc1ccc2c(c1)/C(=C1\COCCN1)C(=O)N2C(C)C)c1cccnc1 (stereo not shown) [Compound 15] | 96 | 
CC(C)Nc1ccc2c(c1)/C(=C1\COCCN1)C(=O)N2C1COC1 [Compound 135] | 82 | 
COCC(C)Nc1ccc2c(c1)/C(=C1\COCCN1)C(=O)N2C1CCOC1 (stereo not shown) [Compound 52] | 61 | 
O=C1/C(=C2/COCCCN2)c2cc(NC3CCOC3)ccc2N1C1CCOCC1 (stereo not shown) [Compound 141] | 104 | 
O=C1/C(=C2/COCCN2)c2cc(NC3CCCC3)ccc2N1C1CCOCC1 [Compound 60] | 245 | 
CC(C)N1C(=O)/C(=C2/COCCN2)c2cc(NC3CCN(C)CC3)ccc21 [Compound 38] | 51 | 
Nc1ccc2c(c1)/C(=C1\CCCN1)C(=O)N2C1CCOCC1 [Compound 83] | 11 | 
CC(Nc1ccc2c(c1)/C(=C1\COCCN1)C(=O)N2C1CCOCC1)c1ccccn1 (stereo not shown) [Compound 77] | 22 | 
CC(C)C(C)Nc1ccc2c(c1)/C(=C1\COCCN1)C(=O)N2C1COC1 (stereo not shown) [Compound 66] | 169 | 
O=C1/C(=C2/COCCN2)c2cc(NC3CCOCC3)ccc2N1C1CCOCC1 [Compound 18] | 11 | 
CC(C)N1CCC(Nc2ccc3c(c2)/C(=C2\COCCN2)C(=O)N3C(C)C)CC1 [Compound 96] | 63 | 
CC1OCCC1Nc1ccc2c(c1)/C(=C1\COCCN1)C(=O)N2C(C)C (stereo not shown) [Compound 125] | 50 | 
O=C1/C(=C2/COCCN2)c2cc(NC3CCC3)ccc2N1C1CCOC1 (stereo not shown) [Compound 14] | 101 | 
COCC(C)N1C(=O)/C(=C2/COCCN2)c2cc(N3CCC(O)C3)ccc21 (stereo not shown) [Compound 119] | 422 | 
CC(C)Nc1ccc2c(c1)/C(=C1\CCCCN1)C(=O)N2C(C)C [Compound 133] | 49 | 
CN1C(=O)/C(=C2/CCOCCN2)c2cc(N3CCCC3)ccc21 [Compound 107] | 299 | 
CN1CCN/C(=C2\C(=O)N(C)c3ccc(N4CCCC4)cc32)CC1 [Compound 64] | 286 | 
CC(C)Nc1ccc2c(c1)/C(=C1\CN(C(C)C)CCN1)C(=O)N2C(C)C [Compound 88] | 68 | 
CC(C)N1C(=O)/C(=C2/COCCN2)c2cc(NC(C)C(C)(C)C)ccc21 (stereo not shown) [Compound 55] | 307 | 

Structure (SMILES) | IC50 (Complex I) [nM] | other results
CC(Nc1ccc2c(c1)/C(=C1\COCCN1)C(=O)N2C1CCOCC1)c1cncnc1 (stereo not shown) [Compound 147] | 69 | 
CC(=O)N1CCC(Nc2ccc3c(c2)/C(=C2\COCCN2)C(=O)N3C(C)C)CC1 [Compound 172] | 78 | 
O=C1/C(=C2/COCCN2)c2cc(NC3CCC3)ccc2N1C1CCOCC1 [Compound 132] | 55 | 
CC(C)N1CCN/C(=C2\C(=O)N(C)c3ccc(N4CCCC4)cc32)C1 [Compound 23] | 137 | 
CC(C)Nc1ccc2c(c1)/C(=C1\COCCN1)C(=O)N2C1CCOCC1 [Compound 3] | 77 | 
CN(C)c1ccc2c(c1)C(=C1NCC3(CCCCC3)CN1)C(=O)N2C [Compound 104] | 704 | 
CC(C)N1CCC2(CC1)CN/C(=C1\C(=O)N(C(C)C)c3ccc(N4CCCC4)cc31)CO2 [Compound 91] | 242 | 
CC1CCCC1Nc1ccc2c(c1)/C(=C1\COCCN1)C(=O)N2C1CCOCC1 (stereo not shown) [Compound 102] | 109 | 
CC(Nc1ccc2c(c1)/C(=C1\COCCN1)C(=O)N2C(C)C)C1CCC1 (stereo not shown) [Compound 37] | 405 | 
CC(C)N1C(=O)/C(=C2/COCCN2)c2cc(NC3COC3)ccc21 [Compound 98] | 187 | 
CC(=O)N1CCC2(CC1)CN/C(=C1\C(=O)N(C(C)C)c3ccc(N4CCCC4)cc31)CO2 [Compound 53] | 233 | 
CC(C)N1C(=O)C(=C2CCOCC2)c2cc(NC3CCOC3)ccc21 (stereo not shown) [Compound 160] | 829 | 
O=C1/C(=C2/COCCN2)c2cc(NCC3CCOC3)ccc2N1C1CCOCC1 (stereo not shown) [Compound 151] | 232 | 
CC(C)Nc1ccc2c(c1)/C(=C1\CN(C3CCOCC3)CCN1)C(=O)N2C1CCOCC1 [Compound 24] | 48 | IC50 (HT-22 cells; protection of HT-22 cells from glutamate (5 mM) induced cell death, 16 hours, Alamar Blue viability): 123 nM
CN(C)c1ccc2c(c1)/C(=C1\CCCCN1)C(=O)N2C [Compound 62] | 81 | 
CC(C)Nc1ccc2c(c1)/C(=C1\CCCN1C)C(=O)N2C(C)C [Compound 115] | 80 | 
O=C1/C(=C2/CCOCCN2)c2cc(NC3CCOC3)ccc2N1C1CCOCC1 (stereo not shown) [Compound 140] | 84 | 
CC(Nc1ccc2c(c1)/C(=C1\COCCN1)C(=O)N2C(C)C)c1ccccn1 (stereo not shown) [Compound 71] | 93 | 
O=C1/C(=C2/COCCN2)c2cc(NC3COC3)ccc2N1C1CCOCC1 [Compound 175] | 97 | 
O=C1/C(=C2/COCCN2)c2cc(N3CCCCC3)ccc2N1C1CCOCC1 [Compound 86] | 69 | 
COCC(C)N1C(=O)/C(=C2/COCCN2)c2cc(N3CCCC3)ccc21 (stereo not shown) [Compound 68] | 624 | 
CCC(C)Nc1ccc2c(c1)/C(=C1\COCCN1)C(=O)N2C(C)C (stereo not shown) [Compound 54] | 203 | 
CN1C(=O)/C(=C2/CCN(C3CCOC3)CCN2)c2cc(N3CCCC3)ccc21 (stereo not shown) [Compound 155] | 264 | 
CC1CCCC1Nc1ccc2c(c1)/C(=C1\COCCN1)C(=O)N2C(C)C (stereo not shown) [Compound 124] | 259 | 
CC(C)N1C(=O)/C(=C2/CCOCCN2)c2cc(N3CCCC3)ccc21 [Compound 129] | 702 | 
CC(C)Nc1ccc2c(c1)/C(=C1\CC3(CN1)COC3)C(=O)N2C1CCOCC1 [Compound 165] | 181 | 
